Reference: US20030144346A1, “Methods and compositions for regulation of 5-alpha reductase activity” (priority 1997, published 2003)
pIC50: −log10 of the molar value.

Experiments:
[1] = molecular target: T1, type 1 human 5α-reductase (HRED1) (Homo sapiens, UniProt P18405); assay: Whole cell assay of 5α-reductase, type 1 isoenzyme; assay type: cell-based; set-up: expressed in transfected cells; host or cells: rat 1A cells infected with pMV7 retrovirus;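 further: intact rat 1A cells engineered to express the human type 1 5α-reductase isozyme serve as the enzyme source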
T1 sequence (P18405 1-259): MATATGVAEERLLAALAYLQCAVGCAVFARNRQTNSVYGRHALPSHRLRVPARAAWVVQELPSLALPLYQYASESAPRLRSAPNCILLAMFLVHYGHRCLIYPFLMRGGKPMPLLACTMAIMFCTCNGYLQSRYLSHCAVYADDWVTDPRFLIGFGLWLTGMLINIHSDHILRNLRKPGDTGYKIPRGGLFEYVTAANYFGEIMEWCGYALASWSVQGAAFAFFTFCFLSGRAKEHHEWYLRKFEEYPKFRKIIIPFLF

[2] = molecular target: T2, type 2 human 5α-reductase (HRED2) (Homo sapiens, UniProt P31213); assay: Whole cell assay of 5α-reductase, type 2 isoenzyme; assay type: cell-based; set-up: expressed in transfected cells; host or cells: rat 1A cells infected with pMV7 retrovirus; conditions: for inhibition at 100 µM / HRED2 % Inhibition @ 100 μM: Table 7; for pIC50: Table 7, read-out: HCRED2 IC50;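 on all read-outs here: intact rat 1A cells genetically modified to carry human type 2 5α-reductase served as the enzyme source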
T2 sequence (P31213 1-254): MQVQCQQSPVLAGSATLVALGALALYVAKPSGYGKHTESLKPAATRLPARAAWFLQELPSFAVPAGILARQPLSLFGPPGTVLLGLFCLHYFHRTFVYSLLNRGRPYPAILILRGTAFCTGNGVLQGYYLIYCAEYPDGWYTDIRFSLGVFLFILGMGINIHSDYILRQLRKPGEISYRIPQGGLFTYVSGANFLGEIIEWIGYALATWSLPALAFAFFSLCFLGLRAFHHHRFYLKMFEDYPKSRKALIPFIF

[3] = molecular target: T1, type 1 human 5α-reductase (HRED1); assay: Cell free assay of 5α-reductase, microsomes of rat 1A cells expressing type 1 isoenzyme (HRED1); assay type: biochemical; set-up: expressed in transfected cells; host or cells: rat 1A cells infected with pMV7 retrovirus; microsomes;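 further: microsomes from rat 1A cells expressing human type 1 5α-reductase, conversion of radiolabeled testosterone to dihydrotestosterone quantified by thin layer chromatography with radioanalytic scanning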
[4] = molecular target: T2, type 2 human 5α-reductase (HRED2); assay: Cell free assay of 5α-reductase, microsomes of rat 1A cells expressing type 2 isoenzyme (HRED2); assay type: biochemical; set-up: expressed in transfected cells; host or cells: rat 1A cells infected with pMV7 retrovirus; microsomes;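 further: labeled testosterone and its product dihydrotestosterone measured in microsomal reaction extracts via thin layer chromatography plus radioanalytic scanning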
[5] = whole cell assay, Table 7, read-out: HCRED1 IC50
[6] = cell free assay, Table 1 flavanoids, read-out: HRED1 IC50
[7] = cell free assay, Table 1 flavanoids, read-out: HRED2 IC50
[8] = 100 uM, cell free assay, Table 1, read-out: HRED1 % Inhibition @ 100 uM
[9] = 100 uM, cell free assay, Table 1, read-out: HRED2 % Inhibition @ 100 uM
[10] = cell-free assay, read-out: IC50, type 1 isoenzyme

Row | SMILES | inhibition at 100 µM ([1]; whole cell assay, Table 7) | pIC50 [1, 5] | inhibition at 100 µM [2] | pIC50 [2] | pIC50 [3, 6] | pIC50 [4, 7] | HRED1 % Inhibition @ 100 μM ([1]; whole cell assay, Table 7) | HRED2 % Inhibition @ 100 μM [2] | other results
1 | O=C(O[C@@H]1Cc2c(O)cc(O)cc2O[C@@H]1c1ccc(O)c(O)c1)c1cc(O)c(O)c(O)c1 [Epicatechin Gallate] | 0% | < 4.00 | 0% | < 4.00 | 4.96 | 4.22 | – | – | inhibition at 100 µM ([3]; read-out: HRED1 % Inhibition @ 100 uM): 100%; inhibition at 100 µM ([4]; read-out: HRED2 % Inhibition @ 100 uM): 83%
2 | Oc1cc(O)c2c(c1)O[C@H](c1ccc(O)c(O)c1)[C@H](O)C2 [Epicatechin] | 0% | < 4.00 | 1% | < 4.00 | < 4.00 | < 4.00 | – | – | inhibition at 100 µM [3, 8]: 14%; inhibition at 100 µM [4, 9]: 4%
3 | Oc1cc(O)c2c(c1)O[C@H](c1cc(O)c(O)c(O)c1)[C@H](O)C2 [Epigallocatechin] | 15% | < 4.00 | 1% | < 4.00 | < 4.00 | < 4.00 | – | – | inhibition at 100 µM [3, 8]: 15%; inhibition at 100 µM ([3]; 100 μM, cell free assay, Table 5, read-out: HRED1 % Inhibition @ 100 μM): 61%; pIC50 ([3]; cell free assay, Table 5 epigallocatechin derivatives, read-out: HRED1 IC50): 4.21; inhibition at 100 µM [4, 9]: 3%; inhibition at 100 µM ([4]; 100 μM, cell free assay, Table 5, read-out: HRED2 % Inhibition @ 100 μM): 30%; pIC50 ([4]; cell free assay, Table 5 epigallocatechin derivatives, read-out: HRED2 IC50): < 4.00
4 | O=c1c(O)c(-c2ccc(O)c(O)c2)oc2cc(O)ccc12 [Fisetin] | 42% | < 4.00 | 27% | < 4.00 | 4.24 | < 4.00 | – | – | inhibition at 100 µM [3, 8]: 97%; pIC50 [3, 10]: > 4.00; inhibition at 100 µM [4, 9]: 4%
5 | O=C(O)c1cc(O)c(O)c(O)c1 [Gallic Acid] | 13% | – | 0% | < 4.00 | – | – | – | – | pIC50 [1]: < 4.00
6 | CCCCC/C=C\C/C=C\C/C=C\CCCCC(=O)O[C@H]1CC[C@@]2(C)C(=CC[C@H]3[C@@H]4CC[C@H]([C@H](C)CCCC(C)C)[C@@]4(C)CC[C@@H]32)C1 [Gamma-Linolenic Acid Chol Ester] | – | < 4.00 | – | < 4.00 | – | – | 12% | 11% | –
7 | CCCCC/C=C\C/C=C\C/C=C\CCCCC(=O)OC [Gamma-Linolenic Acid Me Ester] | – | < 4.00 | – | < 4.00 | – | – | 49% | 26% | –
8 | CCCCC/C=C\C/C=C\C/C=C\CCCCC(=O)O [Gamma-Linolenic Acid, Gamma-Linolenic Acid C18:3 CIS 6.9,12] | 91% | 4.66 | 86% | 4.70 | – | – | – | – | pIC50 ([3]; cell free assay, Table 6 fatty acids, read-out: HRED1 IC50): 5.30; pIC50 [3, 10]: 5.52; inhibition at 100 µM ([3]; read-out: HRED1 % Inhibition @ 100 μM): 99%; inhibition at 100 µM ([4]; 100 μM, cell free assay, Table 6, read-out: HRED2 % Inhibition @ 100 μM): 89%; pIC50 ([4]; cell free assay, Table 6 fatty acids, read-out: HRED2 IC50): 4.96; pIC50 ([4]; cell-free assay, read-out: IC50, type 2 isoenzyme): 5.52
9 | O=c1c(-c2ccc(O)cc2)coc2cc(O)cc(O)c12 [Genistein] | – | – | – | – | – | – | – | – | inhibitory activity in the whole cell assay, type 2 isoenzyme, in words [2]: significant inhibitory activity; inhibitory activity against type 2 isoenzyme, in words ([4]; cell-free assay): effective inhibitors
10 | CCCCCCCCCCCCCC(=O)OC1Cc2c(O)cc(O)cc2OC1c1cc(O)c(O)c(O)c1 (stereo not shown) [HZIV 165] | – | 4.55 | – | 4.49 | – | – | 97% | 98% | –
11 | CCCCCCCC(=O)OC1Cc2c(O)cc(O)cc2OC1c1cc(O)c(O)c(O)c1 (stereo not shown) [HZIV 166] | – | 4.24 | – | 4.14 | – | – | 89% | 83% | –
12 | CC(C)OC(=O)c1cc(O)c(O)c(O)c1 [Isopropyl Gallate] | 0% | < 4.00 | 0% | < 4.00 | – | – | – | – | –
